PubChem BioAssay (NCI)
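Briefly, cells in 96-well plates were exposed to five compound concentrations for 48 h, and endpoints were estimated by linear interpolation. The concentration for 50% growth inhibition is given as GI50. The concentration for full growth arrest is given as TGI.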

Columns and labels:
Experiment in all cases: growth of human tumour cells (NCI), 48 h
EKVX NSCLC = test system: EKVX NSCLC
HCT-15 colon = test system: HCT-15 colon
HT29 colon = test system: HT29 colon
SF-539 CNS = test system: SF-539 CNS
SK-MEL-28 melanoma = test system: SK-MEL-28 melanoma
SK-OV-3 ovarian = test system: SK-OV-3 ovarian
UO-31 renal = test system: UO-31 renal
CAKI-1 renal = test system: CAKI-1 renal
HCT-116 colon = test system: HCT-116 colon
U251 CNS = test system: U251 CNS

| SMILES | TGI (EKVX NSCLC) [µM] | TGI (HCT-15 colon) [µM] | TGI (HT29 colon) [µM] | TGI (SF-539 CNS) [µM] | TGI (SK-MEL-28 melanoma) [µM] | TGI (SK-OV-3 ovarian) [µM] | TGI (UO-31 renal) [µM] | TGI (CAKI-1 renal) [µM] | TGI (HCT-116 colon) [µM] | TGI (U251 CNS) [µM] | GI50 (CAKI-1 renal) [µM] | GI50 (EKVX NSCLC) [µM] | GI50 (HCT-15 colon) [µM] | GI50 (HT29 colon) [µM] | GI50 (SF-539 CNS) [µM] | GI50 (SK-MEL-28 melanoma) [µM] | GI50 (SK-OV-3 ovarian) [µM] | GI50 (U251 CNS) [µM] | GI50 (UO-31 renal) [µM] | GI50 (HCT-116 colon) [µM] |
| --- | --- | --- | --- | --- | --- | --- | --- | --- | --- | --- | --- | --- | --- | --- | --- | --- | --- | --- | --- | --- |
| CC(=O)Nc1ccc(C2CC(c3ccc([N+](=O)[O-])cc3)=Nc3ccccc3S2=O)cc1 (stereo not given) | 97.5 | 50.2 | 59.1 | 70.2 | 43.7 | 70.5 | 46.5 |  |  |  |  |  |  |  |  |  |  |  |  |  |
| COc1cc(/C=C2\NC(=O)C(Cc3cc(OC)c(OC)c(C)c3OC)N(C(C)=O)C2=O)c(OC)c(C)c1OC (stereo not given) | > 100 |  | > 100 | > 100 | > 100 | > 100 | > 100 | > 100 | > 100 | > 100 |  |  |  |  |  |  |  |  |  |  |
| C(=Nc1nc(SCc2ccccc2)nc2[nH]ncc12)c1cccs1 | > 100 | > 100 | > 100 | > 100 | > 100 | > 100 | > 100 | > 100 |  | > 100 | 29.8 | 34.5 | 85.4 | 38.2 | 24.8 | 31.3 | > 100 | 43.6 | 73.8 |  |
| N#Cc1ccc(Sc2nc3ccccc3[nH]2)cc1 | > 100 |  | > 100 | > 100 | > 100 | > 100 | > 100 | > 100 |  | > 100 |  |  |  |  |  |  |  |  |  |  |
| CCCCCCCCCCCCCCNC(=O)Nc1ccc(Cl)c(Cl)c1 | 6.15 | > 100 | > 100 | > 100 | > 100 | > 28.3 |  |  | > 23.3 | > 100 |  | 1.97 | 3.21 | 3.27 | 4.07 | 3.7 | 3 | 3.15 | 1.57 | 2.37 |
| COC(=O)C(C(=O)C(=O)Nc1c(Cl)cc([N+](=O)[O-])cc1Cl)c1csc(-n2nc(C3=CCCCC3)cc2-c2ccccc2)n1 (stereo not given) | 94.7 | > 100 | > 100 | > 100 |  | > 100 | > 100 | > 100 | > 100 | > 100 |  |  |  |  |  |  |  |  |  |  |
| COc1cc(OC)c(OC)cc1/C=C/c1nc2ccccc2s1 | > 100 | > 100 | > 100 | > 100 | > 100 | > 100 | > 100 |  | > 100 | > 100 |  |  |  |  |  |  |  |  |  |  |
| S=C1SCN(Cc2ccccc2)CN1Cc1ccco1 |  | 14.4 | 13.9 | 6.68 | 20.1 | 52.7 | 18.7 | 17.4 | 12.3 | 68.3 | 4.81 |  | 2.95 | 3.17 | 2.24 | 5.75 | 12.9 | 21.3 | 4.56 | 1.47 |
| COc1ccc(Nc2cnc3cc(N)cc(N)c3n2)cc1 | 42.6 |  |  | 36.6 | 44.8 | 80.9 | 98.5 | 64.9 | 54.1 | 35.5 | 23 | 22 |  |  | 17.3 | 21.2 | 28.2 | 14.9 | 25.7 | 23.8 |
| COc1ccccc1CNCCN1C(=O)c2ccc3c4c(ccc(c24)C1=O)C(=O)N(CCNCc1ccccc1OC)C3=O |  |  | 0.447 | 1.06 | 2.87 | 3.15 | 2.14 | 5.26 | 0.406 | 0.505 | 1.64 |  |  | 0.215 | 0.553 | 1.46 | 1.55 | 0.225 | 0.841 | 0.189 |
| COc1ccc(C(O)c2cc3c(N)c(C(=O)Nc4cccc5ccccc45)sc3nc2C)cc1 (stereo not given) | > 100 | > 48.7 |  | 0.0698 |  | > 100 | > 75.4 | > 100 | > 64 | > 42.5 | 0.352 | 0.486 | 0.326 | 0.35 | 0.025 |  | 0.643 | 0.372 | 0.622 | 0.318 |
| COc1ccc(-c2cc(/C=C/C(=O)c3ccc(N)cc3)[nH]n2)cc1OC |  | 5.37 | 6.91 | 3.53 | 5.66 | 16.8 | 13.1 |  | 3.51 | 3.66 |  |  | 1.7 | 2.6 | 1.73 | 2.14 | 4.86 | 1.74 | 3.03 | 1.71 |
| COCCN(CCOC)c1nc(-c2ccccc2)nc2ccccc12 | > 100 |  |  | 52.9 | > 100 | > 100 | > 100 | 73.2 | > 100 | > 100 | 23.2 | 38.8 |  |  | 24.3 | 29.2 | 31.9 | 70.1 | 28.1 | 24.5 |
| CCc1ccc(Nc2cc(C)c3ccc(O)cc3n2)cc1 |  | 12.8 | 12.5 | 19.1 | 24.7 | 25.2 | 23 | 19 | 17.4 | 22.5 | 4.92 |  | 2.95 | 3.57 | 5.74 | 11.7 | 12.6 | 6.84 | 4.54 | 4.57 |
| CC12OC(=O)C(C#N)C1(C)C1C(=O)CCCC12 (stereo not given) | > 100 | > 100 |  | > 100 | > 100 | > 100 | > 100 |  | > 100 | > 100 |  |  |  |  |  |  |  |  |  |  |
| COCCN(Cc1ccc(F)cc1)c1ccc(CO)c(Cl)c1 |  | > 100 | > 100 | > 100 | > 100 | > 100 | > 100 | > 100 | > 56.5 | > 54.7 | 21.2 |  | 30.6 | 22.4 | > 71.3 | 31.3 | 38.6 | 6.33 | 15.5 | 0.821 |
